Results from PubChem BioAssay (NCI).
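96-well plates; 48 h exposure; 5 concentrations. Endpoints by linear interpolation between flanking doses. Not reached: highest tested concentration assigned. TGI marks complete inhibition of growth.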

Columns and labels:
Test in all cases: growth of human tumour cells (NCI), 48 h
NCI-H23 lung = system: NCI-H23 lung
PC-3 prostate = system: PC-3 prostate
HS 578T breast = system: HS 578T breast
MCF7 breast = system: MCF7 breast
HCC-2998 colon = system: HCC-2998 colon
A549 NSCLC = system: A549 NSCLC
KM12 colon = system: KM12 colon
COLO 205 colon = system: COLO 205 colon
OVCAR-3 ovarian = system: OVCAR-3 ovarian
SF-539 CNS = system: SF-539 CNS
SF-295 CNS = system: SF-295 CNS
M14 melanoma = system: M14 melanoma
A498 renal = system: A498 renal
CCRF-CEM leukemia = system: CCRF-CEM leukemia
HCT-15 colon = system: HCT-15 colon
SF-268 CNS = system: SF-268 CNS
TK-10 renal = system: TK-10 renal
NCI-H226 lung = system: NCI-H226 lung
HL-60(TB) leukemia = system: HL-60(TB) leukemia
OVCAR-4 ovarian = system: OVCAR-4 ovarian
OVCAR-8 ovarian = system: OVCAR-8 ovarian
OVCAR-5 ovarian = system: OVCAR-5 ovarian
SNB-19 CNS = system: SNB-19 CNS
SN12C renal = system: SN12C renal
BT-549 breast = system: BT-549 breast
MDA-MB-231 breast = system: MDA-MB-231 breast
MDA-MB-435 = system: MDA-MB-435
NCI-H460 lung = system: NCI-H460 lung
U251 CNS = system: U251 CNS
SW-620 colon = system: SW-620 colon
RXF 393 renal = system: RXF 393 renal
T-47D breast = system: T-47D breast
SK-OV-3 ovarian = system: SK-OV-3 ovarian
SK-MEL-28 melanoma = system: SK-MEL-28 melanoma
MOLT-4 leukemia = system: MOLT-4 leukemia
EKVX NSCLC = system: EKVX NSCLC
DU-145 prostate = system: DU-145 prostate
HOP-92 NSCLC = system: HOP-92 NSCLC
LOX IMVI melanoma = system: LOX IMVI melanoma
HT29 colon = system: HT29 colon
CAKI-1 renal = system: CAKI-1 renal
HCT-116 colon = system: HCT-116 colon
SR leukemia = system: SR leukemia
MALME-3M melanoma = system: MALME-3M melanoma
SNB-75 CNS = system: SNB-75 CNS
UACC-62 melanoma = system: UACC-62 melanoma
NCI-H522 lung = system: NCI-H522 lung
786-0 renal = system: 786-0 renal
ACHN renal = system: ACHN renal
K-562 leukemia = system: K-562 leukemia
SK-MEL-2 melanoma = system: SK-MEL-2 melanoma
UACC-257 melanoma = system: UACC-257 melanoma
RPMI-8226 leukemia = system: RPMI-8226 leukemia
HOP-62 NSCLC = system: HOP-62 NSCLC
UO-31 renal = system: UO-31 renal
NCI/ADR-RES ovarian = system: NCI/ADR-RES ovarian

**Q.** With CC(C)Cc1ccc(C(C)C(=O)O)cc1 (stereo not given) as the molecule, how does the TGI (NCI-H23 lung) read?
**A.** The TGI was greater than 100 µM.

**Q.** What does the source list for CC1(C)OC[C@@H]([C@@]2(COC(c3ccccc3)(c3ccccc3)c3ccccc3)CC=CC(=O)O2)O1?
**A.** TGI (PC-3 prostate): > 100 µM; TGI (HS 578T breast): > 100 µM; TGI (MCF7 breast): 54.6 µM; TGI (HCC-2998 colon): 41 µM; TGI (A549 NSCLC): > 100 µM; TGI (KM12 colon): > 100 µM; TGI (COLO 205 colon): 50.6 µM; TGI (OVCAR-3 ovarian): > 100 µM; TGI (SF-539 CNS): > 100 µM; TGI (SF-295 CNS): > 100 µM; TGI (M14 melanoma): > 100 µM; TGI (A498 renal): 71.4 µM; TGI (CCRF-CEM leukemia): 96.7 µM; TGI (HCT-15 colon): > 100 µM; TGI (NCI-H23 lung): > 100 µM; TGI (SF-268 CNS): > 100 µM; TGI (TK-10 renal): > 100 µM; TGI (NCI-H226 lung): > 100 µM; TGI (HL-60(TB) leukemia): 81.2 µM; TGI (OVCAR-4 ovarian): > 100 µM; TGI (OVCAR-8 ovarian): > 100 µM; TGI (OVCAR-5 ovarian): > 100 µM; TGI (SNB-19 CNS): > 100 µM; TGI (SN12C renal): 97.1 µM; TGI (BT-549 breast): 74.4 µM; TGI (MDA-MB-231 breast): > 100 µM; TGI (MDA-MB-435): > 100 µM; TGI (NCI-H460 lung): > 100 µM; TGI (U251 CNS): > 100 µM; TGI (SW-620 colon): > 100 µM; TGI (RXF 393 renal): 69.5 µM; TGI (T-47D breast): > 100 µM; TGI (SK-OV-3 ovarian): > 100 µM; TGI (SK-MEL-28 melanoma): > 100 µM; TGI (MOLT-4 leukemia): 98.2 µM; TGI (EKVX NSCLC): 83.8 µM; TGI (DU-145 prostate): > 100 µM; TGI (HOP-92 NSCLC): 92.1 µM; TGI (LOX IMVI melanoma): > 100 µM; TGI (HT29 colon): > 100 µM; TGI (CAKI-1 renal): > 100 µM; TGI (HCT-116 colon): > 100 µM; TGI (SR leukemia): > 100 µM; TGI (MALME-3M melanoma): > 100 µM; TGI (SNB-75 CNS): 59.3 µM; TGI (UACC-62 melanoma): > 100 µM; TGI (NCI-H522 lung): 40.9 µM; TGI (786-0 renal): > 100 µM; TGI (ACHN renal): > 100 µM; TGI (K-562 leukemia): > 100 µM; TGI (SK-MEL-2 melanoma): 31.1 µM; TGI (UACC-257 melanoma): > 100 µM; TGI (RPMI-8226 leukemia): 64.7 µM; TGI (HOP-62 NSCLC): > 100 µM; TGI (UO-31 renal): > 100 µM

**Q.** For COc1ccc(-c2nc(-c3cnccn3)n(C3OC(CO)C(O)C3O)n2)cc1 (stereo not given), which TGI (PC-3 prostate) is on record?
**A.** Its TGI is greater than 10 µM.

**Q.** What about the TGI (MCF7 breast) of the same molecule?
**A.** Its TGI is greater than 10 µM.

**Q.** What about the TGI (HCC-2998 colon) of the same molecule?
**A.** The TGI was greater than 10 µM.

**Q.** What about the TGI (A549 NSCLC) of the same molecule?
**A.** The TGI was greater than 10 µM.

**Q.** What about the TGI (KM12 colon) of the same molecule?
**A.** The TGI was greater than 10 µM.

**Q.** And the TGI (OVCAR-3 ovarian)?
**A.** Its TGI is greater than 10 µM.

**Q.** And the TGI (SF-539 CNS)?
**A.** Its TGI is greater than 10 µM.

**Q.** And the TGI (SF-295 CNS)?
**A.** The TGI was greater than 10 µM.

**Q.** And the TGI (M14 melanoma)?
**A.** Its TGI is greater than 10 µM.

**Q.** What about the TGI (CCRF-CEM leukemia) of the same molecule?
**A.** The TGI was greater than 10 µM.

**Q.** And the TGI (HCT-15 colon)?
**A.** The TGI was greater than 10 µM.

**Q.** What about the TGI (NCI-H23 lung) of the same molecule?
**A.** The TGI was greater than 10 µM.

**Q.** And the TGI (SF-268 CNS)?
**A.** Its TGI is greater than 10 µM.

**Q.** What about the TGI (TK-10 renal) of the same molecule?
**A.** The TGI was greater than 10 µM.

**Q.** And the TGI (NCI-H226 lung)?
**A.** Its TGI is greater than 10 µM.

**Q.** What about the TGI (HL-60(TB) leukemia) of the same molecule?
**A.** The TGI was greater than 10 µM.

**Q.** What about the TGI (OVCAR-4 ovarian) of the same molecule?
**A.** Its TGI is greater than 10 µM.

**Q.** And the TGI (OVCAR-8 ovarian)?
**A.** Its TGI is greater than 10 µM.

**Q.** What about the TGI (OVCAR-5 ovarian) of the same molecule?
**A.** The TGI was greater than 10 µM.

**Q.** And the TGI (SNB-19 CNS)?
**A.** The TGI was greater than 10 µM.

**Q.** And the TGI (SN12C renal)?
**A.** The TGI was greater than 10 µM.

**Q.** What about the TGI (BT-549 breast) of the same molecule?
**A.** Its TGI is greater than 10 µM.

**Q.** What about the TGI (MDA-MB-435) of the same molecule?
**A.** The TGI was greater than 10 µM.

**Q.** And the TGI (NCI-H460 lung)?
**A.** Its TGI is greater than 10 µM.

**Q.** And the TGI (U251 CNS)?
**A.** The TGI was greater than 10 µM.

**Q.** And the TGI (SW-620 colon)?
**A.** Its TGI is greater than 10 µM.

**Q.** What about the TGI (SK-OV-3 ovarian) of the same molecule?
**A.** Its TGI is greater than 10 µM.

**Q.** What about the TGI (MOLT-4 leukemia) of the same molecule?
**A.** Its TGI is greater than 10 µM.

**Q.** And the TGI (EKVX NSCLC)?
**A.** The TGI was greater than 10 µM.

**Q.** What about the TGI (HOP-92 NSCLC) of the same molecule?
**A.** Its TGI is greater than 10 µM.

**Q.** And the TGI (LOX IMVI melanoma)?
**A.** The TGI was greater than 10 µM.

**Q.** And the TGI (HT29 colon)?
**A.** Its TGI is greater than 10 µM.

**Q.** What about the TGI (SR leukemia) of the same molecule?
**A.** Its TGI is greater than 10 µM.

**Q.** What about the TGI (MALME-3M melanoma) of the same molecule?
**A.** The TGI was greater than 10 µM.

**Q.** What about the TGI (SNB-75 CNS) of the same molecule?
**A.** The TGI was greater than 10 µM.

**Q.** And the TGI (UACC-62 melanoma)?
**A.** The TGI was greater than 10 µM.

**Q.** And the TGI (NCI-H522 lung)?
**A.** Its TGI is greater than 10 µM.

**Q.** And the TGI (786-0 renal)?
**A.** The TGI was greater than 10 µM.

**Q.** What about the TGI (ACHN renal) of the same molecule?
**A.** Its TGI is greater than 10 µM.

**Q.** What about the TGI (K-562 leukemia) of the same molecule?
**A.** Its TGI is greater than 10 µM.

**Q.** And the TGI (SK-MEL-2 melanoma)?
**A.** Its TGI is greater than 10 µM.

**Q.** And the TGI (NCI/ADR-RES ovarian)?
**A.** The TGI was greater than 10 µM.

**Q.** What about the TGI (UACC-257 melanoma) of the same molecule?
**A.** Its TGI is greater than 10 µM.

**Q.** What about the TGI (UO-31 renal) of the same molecule?
**A.** Its TGI is greater than 10 µM.
